Results from patent US12264134B2 (Merck Sharp & Dohme LLC, priority 2018, dated 2025).

Tests used:
[1] = target: T1, IDO1 (Homo sapiens, UniProt P14902); test: IDO1 Human Whole blood Assay; assay type: cell-based; set-up: Human whole blood was drawn in sodium heparin coated tubes from healthy internal donors; from tissue; host or cells: human whole blood from healthy donors, stimulated with LPS and IFNγ; conditions: LPS and IFNγ stimulated, 18 h, read-out: Human Whole Blood Potency, IC50
Outline: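 LC/MS/MS of kynurenine, normalized to spiked isotope-labeled standard (3 μM final), served as the readout. Beforehand, fresh human blood with compound (15 min preincubation) was stimulated overnight (18 h, 37 °C) with 100 ng/mL LPS/IFNγ. IC50 was obtained by four-parameter curve fitting.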

[2] = target: T1, IDO1; test: IDO1 Cellular Assay in HeLa Cells Stimulated with IFNγ; assay type: cell-based; conditions: read-out: HeLa Cell Potency, IC50

T1 sequence (P14902 whole entry): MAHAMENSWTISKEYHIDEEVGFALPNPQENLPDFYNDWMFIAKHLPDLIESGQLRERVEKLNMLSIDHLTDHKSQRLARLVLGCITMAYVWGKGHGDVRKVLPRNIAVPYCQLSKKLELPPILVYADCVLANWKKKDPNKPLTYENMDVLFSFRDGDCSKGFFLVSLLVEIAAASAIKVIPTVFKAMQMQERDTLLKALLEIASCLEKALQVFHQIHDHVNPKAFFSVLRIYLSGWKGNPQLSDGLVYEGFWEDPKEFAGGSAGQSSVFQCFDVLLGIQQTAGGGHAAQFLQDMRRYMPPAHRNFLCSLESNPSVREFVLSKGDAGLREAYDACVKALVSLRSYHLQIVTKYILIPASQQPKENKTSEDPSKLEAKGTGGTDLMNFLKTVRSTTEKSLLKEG

SMILES	IC50 [1] [nM]	IC50 [2] [nM]
Cc1cccc(N2CCN(C(=O)Cn3nc(C(=O)N4CC[C@@H](O)[C@H](F)C4)c4c3C[C@H]3C[C@@H]43)CC2)c1C [Example 279, 1-[4-(2,3-dimethylphenyl)piperazin-1-yl]-2-{(3bR,4aR)-3-[(3R,4R)-3-fluoro-4-hydroxypiperidine-1-carbonyl]-3b,4,4a,5-tetrahydro-1H-cyclopropa[3,4]cyclopenta[1,2-c]pyrazol-1-yl}ethan-1-one]	70	0.59
Cc1cccc(N2CCN(C(=O)Cn3nc(C(=O)N4CC[C@H](O)[C@H](C)C4)c4c3C[C@H]3C[C@@H]43)CC2)c1C [Example 280, 1-[4-(2,3-dimethylphenyl)piperazin-1-yl]-2-{(3bR,4aR)-3-[(3R,4S)-4-hydroxy-3-methylpiperidine-1-carbonyl]-3b,4,4a,5-tetrahydro-1H-cyclopropa[3,4]cyclopenta[1,2-c]pyrazol-1-yl}ethan-1-one]	127	0.79
Cc1cccc(N2CCN(C(=O)Cn3nc(C(=O)N4CC[C@@H](O)[C@@H](C)C4)c4c3C[C@H]3C[C@@H]43)CC2)c1C [Example 281, 1-[4-(2,3-dimethylphenyl)piperazin-1-yl]-2-{(3bR,4aR)-3-[(3S,4R)-4-hydroxy-3-methylpiperidine-1-carbonyl]-3b,4,4a,5-tetrahydro-1H-cyclopropa[3,4]cyclopenta[1,2-c]pyrazol-1-yl}ethan-1-one]	294	0.97
Cc1cccc(N2CCN(C(=O)Cn3nc(C(=O)N4C[C@@H](C)O[C@@H](C)C4)c4c3C[C@H]3C[C@@H]43)CC2)c1C [Example 283, 2-{(3bR,4aR)-3-[(2R,6S)-2,6-dimethylmorpholine-4-carbonyl]-3b,4,4a,5-tetrahydro-1H-cyclopropa[3,4]cyclopenta[1,2-c]pyrazol-1-yl}-1-[4-(2,3-dimethylphenyl)piperazine-1-yl]ethan-1-one]	163	1.13
Cc1cccc(N2CCN(C(=O)Cn3nc(C(=O)N4CC[C@@H](O)[C@H](C)C4)c4c3C[C@H]3C[C@@H]43)CC2)c1C [Example 284, 1-[4-(2,3-dimethylphenyl)piperazin-1-yl]-2-{(3bR,4aR)-3-[(3R,4R)-4-hydroxy-3-methylpiperidine-1-carbonyl]-3b,4,4a,5-tetrahydro-1H-cyclopropa[3,4]cyclopenta[1,2-c]pyrazol-1-yl}ethan-1-one]	403	1.14
Cc1cccc(N2CCN(C(=O)Cn3nc(C(=O)N4CCN(C(=O)CO)CC4)c4c3C[C@H]3C[C@@H]43)CC2)c1C [Example 285, 1-[4-(2,3-dimethylphenyl)piperazin-1-yl]-2-{(3bR,4aR)-3-[4-(hydroxyacetyl)piperazine-1-carbonyl]-3b,4,4a,5-tetrahydro-1H-cyclopropa[3,4]cyclopenta[1,2-c]pyrazol-1-yl}ethan-1-one]	58	1.46
Cc1cccc(N2CCN(C(=O)Cn3nc(C(=O)N4CCC(F)(CO)CC4)c4c3C[C@H]3C[C@@H]43)CC2)c1C [Example 286, 1-[4-(2,3-dimethylphenyl)piperazin-1-yl]-2-{(3bR,4aR)-3-[4-fluoro-4-(hydroxymethyl)piperidine-1-carbonyl]-3b,4,4a,5-tetrahydro-1H-cyclopropa[3,4]cyclopenta[1,2-c]pyrazol-1-yl}ethan-1-one]	44	1.52
Cc1cccc(N2CCN(C(=O)Cn3nc(C(=O)N4CC[C@@H](O)[C@@H](F)C4)c4c3C[C@H]3C[C@@H]43)CC2)c1C [Example 288, 1-[4-(2,3-dimethylphenyl)piperazin-1-yl]-2-{(3bR,4aR)-3-[(3S,4R)-3-fluoro-4-hydroxypiperidine-1-carbonyl]-3b,4,4a,5-tetrahydro-1H-cyclopropa[3,4]cyclopenta[1,2-c]pyrazol-1-yl}ethan-1-one]	100	1.71
Cc1cccc(N2CCN(C(=O)Cn3nc(C(=O)N4CC[C@H](O)[C@H](F)C4)c4c3C[C@H]3C[C@@H]43)CC2)c1C [Example 289, 1-[4-(2,3-dimethylphenyl)piperazin-1-yl]-2-{(3bR,4aR)-3-[(3R,4S)-3-fluoro-4-hydroxypiperidine-1-carbonyl]-3b,4,4a,5-tetrahydro-1H-cyclopropa[3,4]cyclopenta[1,2-c]pyrazol-1-yl}ethan-1-one]	180	1.95
Cc1cccc(N2CCN(C(=O)Cn3nc(C(=O)N4CC[C@@H](O)C[C@@H]4C)c4c3C[C@H]3C[C@@H]43)CC2)c1C [Example 290, 1-[4-(2,3-dimethylphenyl)piperazin-1-yl]-2-{(3bR,4aR)-3-[(2S,4R)-4-hydroxy-2-methylpiperidine-1-carbonyl]-3b,4,4a,5-tetrahydro-1H-cyclopropa[3,4]cyclopenta[1,2-c]pyrazol-1-yl}ethan-1-one]	771	2.03

Other lines, results leading:

IC50 [1] [nM]	IC50 [2] [nM]	SMILES
212	2.79	Cc1cccc(N2CCN(C(=O)Cn3nc(C(=O)N4CC[C@H](O)[C@@H](F)C4)c4c3C[C@H]3C[C@@H]43)CC2)c1C [Example 291, 1-[4-(2,3-dimethylphenyl)piperazin-1-yl]-2-{(3bR,4aR)-3-[(3S,4S)-3-fluoro-4-hydroxypiperidine-1-carbonyl]-3b,4,4a,5-tetrahydro-1H-cyclopropa[3,4]cyclopenta[1,2-c]pyrazol-1-yl}ethan-1-one]
178	5.46	Cc1cccc(N2CCN(C(=O)Cn3nc(C(=O)N4CCC(F)(CO)CC4)c4c3CCC4)CC2)c1C [Example 293, 1-[4-(2,3-dimethylphenyl)piperazin-1-yl]-2-{3-[4-fluoro-4-(hydroxymethyl)piperidine-1-carbonyl]-5,6-dihydrocyclopenta[c]pyrazol-1(4H)-yl}ethan-1-one]
1450	5.59	Cc1cccc(N2CCN(C(=O)Cn3nc(C(=O)N4C[C@@H](C)O[C@@H](C)C4)c4c3[C@H]3C[C@H]3C4)CC2)c1C [Example 294, 2-{(4aS,5aS)-3-[(2R,6S)-2,6-dimethylmorpholine-4-carbonyl]-4,4a,5,5a-tetahydro-1H-cyclopropa[4,5]cyclopenta[1,2-c]pyrazol-1-yl}-1-[4-(2,3-dimethylphenyl)piperazin-1-yl]ethan-1-one]
543	7.99	Cc1cccc(N2CCN(C(=O)Cn3nc(C(=O)N4C[C@@H](C)O[C@@H](C)C4)c4c3[C@@H]3C[C@@H]3C4)CC2)c1C [Example 296, 2-{(4aR,5aR)-3-[(2R,6S)-2,6-dimethylmorpholine-4-carbonyl]-4,4a,5,5a-tetrahydro-1H-cyclopropa[4,5]cyclopenta[1,2-c]pyrazol-1-yl}-1-[4-(2,3-dimethylphenyl)piperazin-1-yl]ethan-1-one]
1220	11.3	Cc1cccc(N2CCN(C(=O)Cn3nc(C(=O)N4CCC5(CO)CC4C5)c4c3CCC4)CC2)c1C [Example 297, 1-[4-(2,3-dimethylphenyl)piperazin-1-yl]-2-{3-[5-(hydroxymethyl)-2-azabicyclo[3.1.1]heptane-2-carbonyl]-5,6-dihydrocyclopenta[c]pyrazol-1(4H)-yl}ethan-1-one]
846	4.88	Cc1c(Cl)cccc1N1CCN(C(=O)Cn2nc(C(=O)N3CCC(F)(CN)CC3)c3c2C[C@H]2C[C@@H]32)C2(CC2)C1 [Example 314, 2-{(3bR,4aR)-3-[4-(aminomethyl)-4-fluoropiperidine-1-carbonyl]-3b,4,4a,5-tetrahydro-1H-cyclopropa[3,4]cyclopenta[1,2-c]pyrazol-1-yl}-1-[7-(3-chloro-2-methylphenyl)-4,7-diazaspiro[2.5]octan-4-yl]ethan-1-one]
272	3.21	Cc1c(Cl)cccc1N1CCN(C(=O)Cn2nc(C(=O)N3CC[C@H](N)[C@@H](F)C3)c3c2C[C@H]2C[C@@H]32)C2(CC2)C1 [Example 315, 2-{(3bR,4aR)-3-[(3S,4S)-4-amino-3-fluoropiperidine-1-carbonyl]-3b,4,4a,5-tetrahydro-1H-cyclopropa[3,4]cyclopenta[1,2-c]pyrazol-1-yl}-1-[7-(3-chloro-2-methylphenyl)-4,7-diazaspiro[2.5]octan-4-yl]ethan-1-one]
205	1.65	Cc1c(F)ccc(N2CCN(C(=O)Cn3nc(C(=O)N4CC[C@H](O)[C@H](F)C4)c4c3C[C@H]3C[C@@H]43)C3(CC3)C2)c1C [Example 317, 1-[7-(4-fluoro-2,3-dimethylphenyl)-4,7-diazaspiro[2.5]octan-4-yl]-2-{(3bR,4aR)-3-[(3R,4S)-3-fluoro-4-hydroxypiperidine-1-carbonyl]-3b,4,4a,5-tetrahydro-1H-cyclopropa[3,4]cyclopenta[1,2-c]pyrazol-1-yl}ethan-1-one]
452	1.31	Cc1c(F)ccc(N2CCN(C(=O)Cn3nc(C(=O)N4CCN(C(=O)CO)CC4)c4c3C[C@H]3C[C@@H]43)C3(CC3)C2)c1C [Example 319, 1-[7-(4-fluoro-2,3-dimethylphenyl)-4,7-diazaspiro[2.5]octan-4-yl]-2-{(3bR,4aR)-3-[4-(hydroxyacetyl)piperazine-1-carbonyl]-3b,4,4a,5-tetrahydro-1H-cyclopropa[3,4]cyclopenta[1,2-c]pyrazol-1-yl}ethan-1-one]
347	1.31	CC(=O)NC1CCN(C(=O)c2nn(CC(=O)N3CCN(c4ccc(F)c(C)c4C)CC34CC4)c3c2[C@@H]2C[C@@H]2C3)CC1 [Example 320, N-{1-[(3bR,4aR)-1-{2-[7-(4-fluoro-2,3-dimethylphenyl)-4,7-diazaspiro[2.5]octan-4-yl]-2-oxoethyl}-3b,4,4a,5-tetrahydro-1H-cyclopropa[3,4]cyclopenta[1,2-c]pyrazole-3-carbonyl]piperidin-4-yl}acetamide]
